# In patent publication US20090264355A1, “METHODS TO TREAT ALZHEIMER'S DISEASE OR OTHER DISORDERS MEDIATED BY AMYLOID-BETA ACCUMULATION IN A SUBJECT” (WASHINGTON UNIVERSITY IN ST. LOUIS, priority 2005, published 2009):
# Key:
# [1] = system: LRP1; test: LRP1 expression in cerebral capillaries by Western blot after acute inhibition of Pgp; type: in vivo, APPsw mice; conditions: ten hours after treatment, 80 mg/kg intravenous
# Experimental: Hippocampal tissue from 12 month old APPsw, Pgp-wild type and APPsw, Pgp-null littermates was homogenized in 150 mM NaCl, 50 mM Tris pH 7.4, 0.5% deoxycholic acid, 0.1% SDS, 1% Triton X-100, 2.5 mM EDTA, and protease inhibitors. Western blotting for MRP1, LRP1, and RAGE were performed using 3-8% NuPAGE Tris-Acetate gels (Invitrogen) with thirty micrograms of protein loaded per lane. Cerebral microvessels from 2-3 month old PGP-wildtype (FVB wild type) and Pgp-null mice were isolated as described (Zlokovic, B. V., et al. 1993. J. Biol. Chem. 268:8019-8025.). […] Bands were detected with Lumigen-TMA6 (Amersham Biosciences) and captured digitally using the Kodak ImageStation 440CF. The relative absorbance of each band was detected by densitometry and normalized to protein loaded in each lane. […]
# Acute inhibition of Pgp activity was assessed using APPsw mice (also called Tg2576). […] Using in vivo microdialysis in awake, freely moving mice (Cirrito, J. R., et al. 2003. J. Neurosci. 23:8844-8853; DeMattos, R. B., et al. 2004. Neuron. 41:193-202), a basal concentration of ISF Aβ was determined over 5 hours. Mice were then treated with either vehicle or XR9576 and ISF Aβ levels were assessed for an additional 10 hours (FIG. 2A). […] Ten hours after treatment with either vehicle or XR9576, cerebral microvessels were also isolated and assessed for levels of LRP1 by Western blot.
# [2] = system: Pgp; test: [99mTc]Sestamibi transport and biodistribution; type: in vivo, mice; conditions: for brain content of the tracer: five minutes after intravenous bolus injection (2 μCi)
# Experimental: The radiopharmaceutical [^99mTc]Sestamibi (Bristol-Myers Squibb Co.) was prepared from a one-step commercial kit formulation by addition of [^99mTc]TcO4^− according to the manufacturer's recommendations (25). […] Data are expressed as percent injected dose per gram tissue [(μCi [^99mTc]Sestamibi in tissue) (μCi injected [^99mTc]Sestamibi)^−1(g tissue)^−1×100] and are reported as mean±SEM (n=3-4) or ±range (n=2).
# APPsw^+/− mice were bred to mdr1a/b^−/− animals to produce littermate mice that were positive for the APPsw transgene and either Pgp-null (APPsw^+/−, mdr1a/b^−/−) or Pgp wild type (APPsw^+/−, mdr1a/b^+/+). […] Normally, [^99mTc]Sestamibi is readily transported out of the brain by Pgp.
# [3] = target: T1, Pgp (Mus musculus, UniProt P21447); test: ISF Aβ in vivo microdialysis after acute pharmacologic inhibition of Pgp; parameters: species or system APPsw mice; conditions: 80 mg/kg intravenous
# T1 construct: from tissue; host or cells: brain (blood-brain barrier) of living 3 month old APPsw+/- (Tg2576) mice
# Experimental: In vivo microdialysis to assess brain ISF Aβ1-x in the hippocampus of awake, freely moving 3 month old APPsw^+/− mice was performed exactly as described (Cirrito, J. R., et al. 2003. J. Neurosci. 23:8844-8853; DeMattos, R. B., et al. 2004. Neuron. 41:193-202). Aβ1-x represents all Aβ peptides beginning at amino acid 1 of the N-terminus with the C-terminus being variable but predominantly either ending at position 40 or 42. An initial 4-6 hour recovery period elapsed after guide implantation and probe insertion to allow for tissue recovery, followed by collection of microdialysis samples for 5 hours at one-hour intervals at a flow rate of 1.5 μl/min to establish basal level of ISF Aβ. […] Concentrations of ISF Aβ1-x for each mouse were expressed as the percentage of basal level for each mouse (mean of 5 hours prior to treatment).
# Acute inhibition of Pgp activity was assessed using APPsw mice (also called Tg2576). […] Using in vivo microdialysis in awake, freely moving mice (Cirrito, J. R., et al. 2003. J. Neurosci. 23:8844-8853; DeMattos, R. B., et al. 2004. Neuron. 41:193-202), a basal concentration of ISF Aβ was determined over 5 hours. Mice were then treated with either vehicle or XR9576 and ISF Aβ levels were assessed for an additional 10 hours (FIG. 2A). […]
# [4] = system: Pgp; test: BBB transport: clearance of radiotracers from the brain after intracerebral microinjection; conditions: both groups (Pgp-wild type and Pgp-null); 30 minutes; co-injected with [125I]Aβ42
# Experimental: Transport of human [^125I]Aβ40 or [^125I]Aβ42 across the BBB and the associated calculations were performed as described (DeMattos, R. B., et al. 2002. Science. 295:2264-2267; Zlokovic, B. V., et al. 2000. Nat. Med. 6:718-719.). Briefly, a guide cannula was implanted stereotaxically into the right caudate-putamen of anesthetized mice at coordinates 0.9 mm anterior to bregma, 1.9 mm lateral, and 2.9 mm below the dura. Animals were allowed to recover after surgery prior to radiotracer studies. […] Twelve nanomoles of [^14C]inulin and either [^125I]Aβ40 or [^125I]Aβ42 was co-injected in a volume of 0.5 μl over 5 minutes using an ultra micropump (World Precision Instruments). The specific activities of peptide were in the range of 80-120 μCi/μg. The percentage of radioactivity remaining in the brain after microinjection was determined as % recovery in brain=100×(Nb/Ni), where Nb is the radioactivity remaining in the brain at the end of the experiment and Ni is the radioactivity microinjected into brain ISF, i.e., the disintegrations per minute for [^14C]inulin and the counts per minute for tricholoracetic acid-precipitable [^125I]radioactivity (intact Aβ). The percentage of Aβ cleared through the BBB was calculated as [(1−Nb(Aβ)/Ni(Aβ))−(1−Nb(inulin)/Ni(inulin))]×100, using a standard time of 30 min. […]
# T1 sequence (P21447 whole entry): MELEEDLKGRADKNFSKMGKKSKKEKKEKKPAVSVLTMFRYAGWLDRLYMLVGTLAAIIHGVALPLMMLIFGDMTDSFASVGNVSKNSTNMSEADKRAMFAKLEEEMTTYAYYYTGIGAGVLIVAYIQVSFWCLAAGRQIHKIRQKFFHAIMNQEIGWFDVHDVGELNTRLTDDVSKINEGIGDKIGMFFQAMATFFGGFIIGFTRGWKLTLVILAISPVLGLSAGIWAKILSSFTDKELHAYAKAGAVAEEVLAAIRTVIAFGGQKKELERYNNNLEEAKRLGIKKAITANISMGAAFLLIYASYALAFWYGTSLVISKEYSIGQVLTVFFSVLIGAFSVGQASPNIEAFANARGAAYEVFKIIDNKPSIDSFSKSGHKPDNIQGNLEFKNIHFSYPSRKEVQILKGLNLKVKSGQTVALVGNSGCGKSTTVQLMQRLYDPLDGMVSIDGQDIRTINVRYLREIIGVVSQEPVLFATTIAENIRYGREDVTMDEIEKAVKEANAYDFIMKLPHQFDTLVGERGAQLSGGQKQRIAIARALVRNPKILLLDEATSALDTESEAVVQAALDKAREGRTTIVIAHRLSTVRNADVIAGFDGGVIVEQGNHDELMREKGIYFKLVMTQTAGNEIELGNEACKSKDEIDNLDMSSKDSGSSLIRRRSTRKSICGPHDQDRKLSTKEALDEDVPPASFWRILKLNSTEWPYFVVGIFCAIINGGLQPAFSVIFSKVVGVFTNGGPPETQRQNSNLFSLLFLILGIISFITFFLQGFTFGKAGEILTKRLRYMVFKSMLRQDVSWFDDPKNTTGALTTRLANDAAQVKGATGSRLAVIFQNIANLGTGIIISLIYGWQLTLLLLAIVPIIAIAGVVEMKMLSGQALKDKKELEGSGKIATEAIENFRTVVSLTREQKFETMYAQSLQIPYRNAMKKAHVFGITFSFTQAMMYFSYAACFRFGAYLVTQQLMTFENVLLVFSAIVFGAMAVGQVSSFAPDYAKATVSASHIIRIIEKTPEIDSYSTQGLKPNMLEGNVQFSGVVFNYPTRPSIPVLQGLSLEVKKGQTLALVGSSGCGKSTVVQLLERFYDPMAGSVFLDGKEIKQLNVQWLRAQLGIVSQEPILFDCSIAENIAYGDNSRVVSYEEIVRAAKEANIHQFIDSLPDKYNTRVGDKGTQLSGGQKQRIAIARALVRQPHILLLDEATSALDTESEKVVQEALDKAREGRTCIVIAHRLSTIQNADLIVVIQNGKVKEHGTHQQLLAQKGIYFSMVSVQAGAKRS
compound,measurement,setting,value
COc1cc2c(cc1OC)CN(CCc1ccc(NC(=O)c3cc(OC)c(OC)cc3NC(=O)c3cnc4ccccc4c3)cc1)CC2 [XR9576],levels of LRP1 in cerebral vessels,[1],did not change
same,Pgp function at the BBB as determined with [99mTc]Sestamibi analysis,"[2]; intravenous, 80 mg/kg, data not shown",inhibits Pgp function at the BBB
same,increase of ISF Aβ levels compared to vehicle treated mice,[3]; eight hours after treatment,~30%
same,"ISF exchangeable Aβ1-x (eAβ1-x) levels, % of control-treated (vehicle-treated) mice","[3]; from eight hours after administration, hippocampus, 3 month old APPsw mice",127.7±3.4%
[C-]#[N+]CC(C)(C)OC.[C-]#[N+]CC(C)(C)OC.[C-]#[N+]CC(C)(C)OC.[C-]#[N+]CC(C)(C)OC.[C-]#[N+]CC(C)(C)OC.[C-]#[N+]CC(C)(C)OC.[Tc] [[^99mTc]Sestamibi],increase in brain penetration in Pgp-null mice versus wild type,"[2]; FVB strain, without APPsw transgene",approximately 3.5 fold
same,brain content of the tracer,[2]; Pgp-null mice (FVB),0.85±0.14 % ID/g
same,increase in brain penetration in Pgp-null animals compared with those expressing Pgp,[2]; animals expressing the APPsw+/- transgene,3.5 fold
same,brain content of the tracer,[2]; wild type controls (FVB),0.22±0.02 % injected dose (ID)/gram (g)
same,"blood content of the tracer, difference between the two strains","[2]; wild type versus Pgp-null, five minutes post-injection",no difference
inulin [[^14C]inulin],brain recovery (retained),[4],Approximately 85%
